Assay results as given in ChEMBL document CHEMBL6115038, “Immunoproteasome as a Target for Prodrugs” (J Med Chem, 2025).
Activity calls are given as the source filed them. The rule behind the calls is not given here. Peptide text beside a SMILES is read from it. * marks the point of attachment. Doxorubicin(3'-N) = COc1cccc2c1C(=O)c1c(O)c3c(c(O)c1C2=O)C[C@@](O)(C(=O)CO)C[C@@H]3O[C@H]1C[C@H](N*)[C@H](O)[C@H](C)O1; Morpholinoacetyl = O=C(CN1CCOCC1)*

How the values were obtained:
20S proteasome [1] = assay: Prodrug release in tris HCL buffer assessed as human 20S immunoproteasome-mediated hydrolysis by measuring Dox release measured upto 8 hrs by mass spectrometry analysis; type: ADME, protein-complex assay
20S proteasome [2] = assay: Prodrug release in tris HCL buffer at pH 7.4 assessed as human 20S immunoproteasome mediated hydrolysis by measuring Dox release at 10 uM incubated for 4 hrs in presence of 37.5 to 75 nM of PA28alpha/beta activated complex by mass spectrometry analysis; type: ADME, protein-complex assay; details: pH 7.4, 4 h
[3] = target: T1, von Hippel-Lindau disease tumor suppressor/Bromodomain-containing protein 4 (Homo sapiens) (UniProt O60885+P40337); assay: PROTAC activity at BRD4/VHL in human Ramos cells expressing iCP assessed as induction of BRD4 degradation at 1 nM compound administered as prodrug-PROTAC incubated for 18 hrs by immunoblotting analysis; type: cell-based
Ramos [4] = assay: Cytotoxicity against human Ramos cells assessed as cell viability incubated for 24 hrs by celltiter-glo assay; type: functional, cell-based
[5] = target: T1, von Hippel-Lindau disease tumor suppressor/Bromodomain-containing protein 4 (Homo sapiens); assay: PROTAC activity at BRD4/VHL in human Ramos cells expressing iCP assessed as induction of BRD4 degradation at 100 nM compound administered as prodrug-PROTAC incubated for 18 hrs in presence of ONX-0914 by immunoblotting analysis; type: cell-based
[6] = Cytotoxicity against human AC16 [Human hybrid] cells expressing iCP assessed as cell viability incubated for 24 hrs by celltiter-glo assay; type: toxicity, cell-based
[7] = Prodrug release in tris HCL buffer assessed as human 20S proteasome core particle-mediated hydrolysis by measuring Dox release measured for 4 hrs by mass spectrometry analysis; type: ADME
[8] = Prodrug release in tris HCL buffer assessed as human 20S proteasome core particle-mediated hydrolysis by measuring Dox release measured for 4 hrs in presence of PA28alpha/beta activated complex by mass spectrometry analysis; type: ADME
20S proteasome [9] = assay: Prodrug release in tris HCL buffer at pH 7.4 assessed as human 20S immunoproteasome mediated hydrolysis by measuring Dox release at 10 uM incubated for 90 mins in presence of PA28alpha/beta activated complex by fluorescence based analysis; type: ADME, protein-complex assay; details: pH 7.4, 1.5 h
20S proteasome [10] = assay: Prodrug release in tris HCL buffer at pH 7.4 assessed as human 20S immunoproteasome mediated hydrolysis by measuring Dox release at 10 uM incubated for 4 hrs in presence of PA28alpha/beta activated complex by mass spectrometry analysis; type: ADME, protein-complex assay; details: pH 7.4, 4 h
[11] = Cytotoxicity against human AC16 [Human hybrid] cells assessed as cell viability at 10 uM incubated for 72 hrs by celltiter-glo assay relative to control; type: toxicity, cell-based; details: read-out: Activity
MM.1R = assay: Cytotoxicity against human MM1.R cells assessed as cell viability at 0.0001 to 100 uM incubated for 72 hrs by celltiter-glo assay; type: functional, cell-based; details: dose 0.0001-100 µM
Ramos [12] = assay: Cytotoxicity against human Ramos cells assessed as cell viability incubated for 72 hrs by celltiter-glo assay; type: functional, cell-based
Raji = assay: Cytotoxicity against human Raji cells assessed as cell viability at 0.0001 to 100 uM incubated for 72 hrs by celltiter-glo assay; type: functional, cell-based; details: dose 0.0001-100 µM
[13] = Cytotoxicity against human AC16 [Human hybrid] cells assessed as cell viability at 20 uM incubated for 72 hrs by celltiter-glo assay relative to control; type: toxicity, cell-based; details: read-out: Activity
[14] = Stability in human serum incubated for 1 hr by mass spectrometry analysis; type: ADME, cell-free
[15] = Cytotoxicity against human AC16 [Human hybrid] cells assessed as cell viability incubated for 72 hrs by celltiter-glo assay; type: toxicity, cell-based

T1 sequence (P40337 whole entry, looked up, other chains not shown): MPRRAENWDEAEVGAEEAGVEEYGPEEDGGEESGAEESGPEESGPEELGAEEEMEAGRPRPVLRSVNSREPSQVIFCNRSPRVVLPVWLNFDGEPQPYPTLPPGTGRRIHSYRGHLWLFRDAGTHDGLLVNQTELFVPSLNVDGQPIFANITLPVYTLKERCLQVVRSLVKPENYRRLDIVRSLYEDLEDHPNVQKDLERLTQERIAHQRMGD

SMILES: COc1cccc2c1C(=O)c1c(O)c3c(c(O)c1C2=O)C[C@@](O)(C(=O)CO)C[C@@H]3O[C@H]1C[C@H](NC(=O)[C@H](C)NC(=O)[C@H](C)NC(=O)[C@H](C)NC(=O)[C@H](C)NC(C)=O)[C@H](O)[C@H](C)O1 (Ac-AAAA-{Doxorubicin(3'-N)})
- Drug metabolism (20S proteasome [1]): metabolite_detected
- Drug metabolism (20S proteasome [2]): metabolite_notdetected

SMILES: Cc1ncsc1-c1ccc([C@H](C)NC(=O)[C@@H]2C[C@@H](O)CN2C(=O)[C@@H](NC(=O)COCCCOCCNC(=O)C[C@@H]2N=C(c3ccc(Cl)cc3)c3c(sc(C)c3C)-n3c(C)nnc32)C(C)(C)C)cc1
- Activity [3]: Active
- IC50 (Ramos [4]): 10 nM

SMILES: CSCC[C@H](NC(=O)[C@@H](NC(=O)[C@H](C)NC(=O)CN1CCOCC1)[C@@H](C)O)C(=O)N[C@@H](Cc1c[nH]c2ccccc12)C(=O)Nc1ccc(COC(=O)O[C@H]2C[C@H](C(=O)N[C@@H](C)c3ccc(-c4scnc4C)cc3)N(C(=O)[C@@H](NC(=O)COCCCOCCNC(=O)C[C@@H]3N=C(c4ccc(Cl)cc4)c4c(sc(C)c4C)-n4c(C)nnc43)C(C)(C)C)C2)cc1
- Activity [5]: inactive
- Activity [3]: Active
- Activity [6]: Toxic
- IC50 (Ramos [4]): 10 nM

SMILES: COc1cccc2c1C(=O)c1c(O)c3c(c(O)c1C2=O)C[C@@](O)(C(=O)CO)C[C@@H]3O[C@H]1C[C@H](NC(=O)[C@H](Cc2ccc(O)cc2)NC(=O)[C@@H](NC(=O)[C@H](CC(C)C)NC(=O)[C@H](CC(C)C)NC(C)=O)C(C)C)[C@H](O)[C@H](C)O1 (Ac-LLVY-{Doxorubicin(3'-N)})
- Drug metabolism (20S proteasome [1]): metabolite_detected
- Drug metabolism [7]: metabolite_notdetected
- Drug metabolism [8]: metabolite_detected
- Drug metabolism (20S proteasome [2]): metabolite_notdetected

SMILES: COc1cccc2c1C(=O)c1c(O)c3c(c(O)c1C2=O)C[C@@](O)(C(=O)CO)C[C@@H]3O[C@H]1C[C@H](NC(=O)[C@H](Cc2c[nH]c3ccccc23)NC(=O)[C@H](CCSC)NC(=O)[C@@H](NC(=O)[C@H](C)NC(C)=O)[C@@H](C)O)[C@H](O)[C@H](C)O1 (Ac-ATMW-{Doxorubicin(3'-N)})
- Drug metabolism (20S proteasome [9]): metabolite_detected
- Drug metabolism (20S proteasome [1]): metabolite_detected
- Drug metabolism (20S proteasome [10]): metabolite_detected

SMILES: COc1cccc2c1C(=O)c1c(O)c3c(c(O)c1C2=O)C[C@@](O)(C(=O)CO)C[C@@H]3O[C@H]1C[C@H](NC(C)=O)[C@H](O)[C@H](C)O1
- viability at 72 h, 10 µM [11]: > 90%

SMILES: COc1cccc2c1C(=O)c1c(O)c3c(c(O)c1C2=O)C[C@@](O)(C(=O)CO)C[C@@H]3O[C@H]1C[C@H](NC(=O)[C@H](Cc2c[nH]c3ccccc23)NC(=O)[C@H](CCSC)NC(=O)[C@@H](NC(=O)[C@H](C)NC(=O)CN2CCOCC2)[C@@H](C)O)[C@H](O)[C@H](C)O1 (Morpholinoacetyl-ATMW-{Doxorubicin(3'-N)})
- Activity (MM.1R): Active
- IC50 (Ramos [12]): 5500 nM
- Activity (Raji): Active
- viability at 72 h, 20 µM [13]: > 80%
- Stability [14]: Stable

SMILES: COc1cccc2c1C(=O)c1c(O)c3c(c(O)c1C2=O)C[C@@](O)(C(=O)CO)C[C@@H]3O[C@H]1C[C@H](N)[C@H](O)[C@H](C)O1 [DOXORUBICIN]
- IC50 at 72 h [15]: 233 nM
